Measured values reported in patent US20110201564A1, “SUBSTITUTED 7-SULFANYLMETHYL, 7-SULFINYLMETHYL AND 7-SULFONYLMETHYL INDOLES AND USE THEREOF” (BAYER SCHERING PHARMA AKTIENGESELLSCHAFT, priority 2008, published 2011).
Where two headings read alike, the source gives them in different places.

What was measured:
CYP3A4 [1] = target: T1, CYP3A4 (Homo sapiens, UniProt P08684); experiment: CYP inhibition assay with human liver microsomes; type: in vitro ADME
T1 construct: using human liver microsomes (pool from various individuals); from tissue; host or cells: human liver microsomes (pool from various individuals)
T1 sequence (P08684 whole entry): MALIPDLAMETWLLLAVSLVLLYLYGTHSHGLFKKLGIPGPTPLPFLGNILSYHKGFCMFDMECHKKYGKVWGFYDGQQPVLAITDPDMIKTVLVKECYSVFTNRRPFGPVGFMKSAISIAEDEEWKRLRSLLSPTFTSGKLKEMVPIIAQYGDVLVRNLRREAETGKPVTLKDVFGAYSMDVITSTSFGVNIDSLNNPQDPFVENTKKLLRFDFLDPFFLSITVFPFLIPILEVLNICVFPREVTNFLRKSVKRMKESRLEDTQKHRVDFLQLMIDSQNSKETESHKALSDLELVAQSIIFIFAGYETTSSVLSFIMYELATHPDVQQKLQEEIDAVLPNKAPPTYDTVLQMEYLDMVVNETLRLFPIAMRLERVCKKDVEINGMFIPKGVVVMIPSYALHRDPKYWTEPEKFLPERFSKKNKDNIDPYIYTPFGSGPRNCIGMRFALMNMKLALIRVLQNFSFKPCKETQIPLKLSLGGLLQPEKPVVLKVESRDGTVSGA
Source text: Inhibitory properties of an active ingredient on the cytochromes P450 (CYP) of the human body may entail extensive clinical effects (drug interactions) because most of the prescribed medicaments are degraded (metabolized) by these enzymes. The ones involved in this are in particular the CYP isoenzymes of the 1A and 2C families, CYP2D6 and, with a proportion of almost 50%, CYP3A4. In order to preclude or minimize these possible drug interactions (Drug-Drug Interactions, DDI), the ability of substances to be able to inhibit CYP1A2, CYP2C8, CYP2C9, CYP2D6 and CYP3A4 in humans is investigated using human liver microsomes (pool from various individuals). This takes place by measuring CYP isoform-specific metabolites formed from standard substrates such as, for example, phenacetin, amodiaquin, diclofenac, dextromethorphan, midazolam and testosterone. The inhibitory effects are investigated at six different concentrations of the test compounds (1.5, 3.1, 6.3, 12.5, 25 and 50 μM as maximum concentration or 0.6, 1.3, 2.5, 5, 10 and 20 μM as maximum concentration), comparing with the extent of the CYP isoform-specific metabolite formation of the standard substrates in the absence of the test compounds, and calculating the corresponding IC50 values. CYP isoform-specific standard inhibitors such as, for example, fluvoxamine, quercetin, sulfaphenazole, fluoxetine and ketoconazole serve as control of the results obtained. In order to obtain indications of the possible mechanism-based inhibitors (MBI) on CYP3A4, the human liver microsomes are incubated in the presence of the inhibitor to be investigated for 30 minutes before the addition of midazolam or testosterone as standard substrates of CYP3A4. A reduction in the IC50 obtained by comparison with the mixture without preincubation serves as an indicator of a mechanism-based inhibition. Mibefradil serves as positive control.
The incubations of the standard substrates with human liver microsomes (23-233 μg/mL) in the presence of the test compound (as potential inhibitor) are carried out in 96-well plates in a workstation (Tecan, Genesis, Crailsheim, Germany) at 37° C. The incubation times are 15-20 minutes. The test compounds are preferably dissolved in acetonitrile (1.0 or 2.5 mM stock solution). The 96-well plates are produced by sequential addition of a stock solution of NADP+, EDTA, glucose 6-phosphate and glucose-6-phosphate dehydrogenase in phosphate buffer (pH 7.4), the test compound, and a solution of standard substrate and human liver microsomes in phosphate buffer (pH 7.4). The total volume is 200 μl. The corresponding control incubations with and without standard inhibitor also take place on the 96-well plate. The incubations are stopped after the respective incubation time by adding 100 μl of acetonitrile in which there is a suitable internal standard. Precipitated proteins are removed by centrifugation (3000 rpm, 10 minutes, 10° C.). The resulting supernatants of the respective plates are combined on one plate and analyzed by LC-MS/MS. The […] values are generated from the resulting measured data and used to assess the inhibitory potential of the test compound.

CYP3A4 [2] = target: T1, CYP3A4; experiment: Assay to assess irreversible CYP3A4 inhibition (mechanism-based inhibition) in human liver microsomes; type: in vitro ADME; conditions: CYP3A4 activity as 6β-hydroxytestosterone formation, 2-20 μM
Source text: 8. Assay to Assess Irreversible CYP3A4 Inhibition
Cytochrom P450 enzyme inhibition, especially irreversible enzyme inhibition, also referred to as mechanism-based inhibition (MBI), is an unwanted metabolic property of a substance which may, on concurrent administration of other medicaments, lead to considerable drug interactions. Criteria for the presence of an irreversible inhibition are a time-, concentration- and cofactor- (nicotinamide adenine dinucleotide phosphate, NADPH) dependent inhibition. To this end, the compounds of the invention are incubated in vitro with human liver microsomes, the influence on the CYP3A4 activity and the metabolic degradation of the novel active ingredient is determined, and the prototypical parameters kinact, Ki and the partition ratio r are ascertained therefrom.
The compounds of the invention are incubated with concentrations of 2-20 μM. To this end, stock solutions of the active ingredients with a concentration of 0.2-2 mM are prepared in acetonitrile and then pipetted with a 1:100 dilution into the incubation mixture. The liver microsomes are incubated in 50 mM potassium phosphate buffer (pH 7.4) with and without NADPH-generating system consisting of 1 mM NADP^+, 5 mM glucose 6-phosphate and 1 unit of glucose 6-phosphate dehydrogenase, at 37° C. After defined preincubation times of 0-50 min, aliquots are removed from these mixtures, diluted 1:25 in a new incubation, and incubated in the presence of testosterone and new NADPH-generating system again for 20 min. These incubation mixtures are stopped with acetonitrile (final concentration about 30% v/v), and the protein is removed by centrifugation at about 15 000×g. The samples stopped in this way are either analyzed directly or stored at −20° C. until analyzed.
The analysis takes place by high performance liquid chromatography with mass spectrometry detection (LC-MS). The formation of 6β-hydroxytestosterone as measure of CYP3A4 activity, and the test substance still remaining is quantified. The parameters kinact, Ki and the partition ratio r are determined therefrom so as to assess the novel active ingredients in relation to MBI.

[3] = target: T2, progesterone receptor (PR) (Homo sapiens, UniProt P06401); experiment: Cellular in vitro assay, GAL4-PR chimera luciferase reporter in CHO K1 cells (selectivity); type: cell-based; conditions: antagonism vs progesterone; CHO K1 GAL4-PR LBD luciferase reporter
T2 construct: of the progesterone receptor (PR, amino acids 680-933); expressed in transfected cells; host or cells: CHO K1
T2 sequence (P06401 680-933): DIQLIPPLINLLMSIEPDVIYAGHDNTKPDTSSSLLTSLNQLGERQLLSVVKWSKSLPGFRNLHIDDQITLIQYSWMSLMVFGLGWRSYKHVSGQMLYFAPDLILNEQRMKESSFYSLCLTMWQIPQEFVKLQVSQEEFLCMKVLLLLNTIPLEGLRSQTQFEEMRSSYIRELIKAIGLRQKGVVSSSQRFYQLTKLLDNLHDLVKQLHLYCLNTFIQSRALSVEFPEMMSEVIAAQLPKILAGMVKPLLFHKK
Summary of the method: (§1)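 CHO K1 cells stably expressing GAL4 DNA-binding domain fused to human MR, PR or AR ligand-binding domains plus GAL4-driven firefly luciferase; compounds added 10–30 min before agonist (aldosterone, progesterone or dihydrotestosterone), luciferase read after 5–6 h; IC50 from sigmoidal concentration–response curves.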

androgen receptor (AR) = target: T3, androgen receptor (AR) (Homo sapiens, UniProt P10275); experiment: Cellular in vitro assay, GAL4-AR chimera luciferase reporter in CHO K1 cells (selectivity); type: cell-based; conditions: antagonism vs dihydrotestosterone; CHO K1 GAL4-AR LBD luciferase reporter
T3 construct: of the androgen receptor (AR, amino acids 667-919); expressed in transfected cells; host or cells: CHO K1
T3 sequence (P10275 668-920): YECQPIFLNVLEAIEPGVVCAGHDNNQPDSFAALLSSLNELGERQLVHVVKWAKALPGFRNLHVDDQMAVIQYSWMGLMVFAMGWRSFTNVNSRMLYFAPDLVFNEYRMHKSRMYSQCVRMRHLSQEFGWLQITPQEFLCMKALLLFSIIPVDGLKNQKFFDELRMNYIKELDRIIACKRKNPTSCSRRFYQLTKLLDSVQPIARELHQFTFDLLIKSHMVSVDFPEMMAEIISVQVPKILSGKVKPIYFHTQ
Summary of the method: as §1

[4] = target: T4, human mineralocorticoid receptor (MR) (Homo sapiens, UniProt P08235); experiment: Cellular in vitro assay, GAL4-MR chimera luciferase reporter in CHO K1 cells (inhibitory MR activity); type: cell-based; conditions: antagonism vs aldosterone; CHO K1 GAL4-MR LBD luciferase reporter
T4 construct: expressed in transfected cells; host or cells: CHO K1
T4 sequence (P08235 734-984 limits assumed): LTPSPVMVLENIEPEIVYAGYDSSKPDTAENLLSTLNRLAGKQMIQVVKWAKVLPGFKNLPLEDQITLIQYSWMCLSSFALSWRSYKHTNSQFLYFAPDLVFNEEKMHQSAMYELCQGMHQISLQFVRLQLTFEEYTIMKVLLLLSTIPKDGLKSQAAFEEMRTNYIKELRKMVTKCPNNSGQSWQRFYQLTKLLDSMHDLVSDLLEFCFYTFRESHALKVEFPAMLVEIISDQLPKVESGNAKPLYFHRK
Summary of the method: as §1

Compound | IC50 (CYP3A4 [1]; 30 min preincubation with test compound before substrate, read-out: CYP 3A4 Preincubation, 30 min.) | IC50 (CYP3A4 [1]; without preincubation, read-out: CYP 3A4 Coincubation) | Partition ratio r (CYP3A4 [2]) | IC50 [3] | IC50 (androgen receptor (AR)) | IC50 [4]
CS(=O)(=O)Cc1cccc2c(C(c3ccc(F)cc3)c3ccc(Cl)cc3F)c[nH]c12 (single isomer, unassigned) [Example 118-1, 3-[(4-Chloro-2-fluorophenyl)(4-fluorophenyl)methyl]-7-[(methylsulfonyl)methyl]-1H-indole] | 11.2 µM | > 20 µM | 250 | – | – | –
CS(=O)(=O)Cc1cccc2c(C(CCC#N)c3ccc(C(F)(F)F)cc3)c[nH]c12 (single isomer, unassigned) [Example 56-1, 4-{7-[(Methylsulfonyl)methyl]-1H-indol-3-yl}-4-[4-(trifluoromethyl)phenyl]butanonitrile] | – | – | 100 | 4.07 µM | 5.67 µM | 0.09 µM
CS(=O)(=O)Cc1cc(F)cc2c(C(c3ccc(Cl)cc3)C3CC3C#N)c[nH]c12 (single isomer, unassigned) [Example 277-1-1, 2-[(4-Chlorophenyl){5-fluoro-7-[(methylsulfonyl)methyl]-1H-indol-3-yl}methyl]cyclopropane-carbonitrile] | – | – | >200 | 10 µM | 3.9 µM | 0.008 µM
